Square brackets hold non-standard residues; d marks the D form. Ends that are not written are not given here. Peptide text beside a SMILES is read from it. Phe(4-CH2NH2) = NCc1ccc(C[C@H](N)C(=O)O)cc1; hArg = N=C(N)NCCCC[C@H](N)C(=O)O; Cit = NC(=O)NCCC[C@H](N)C(=O)O; Agb = N=C(N)NCC[C@H](N)C(=O)O; Agp = N=C(N)NC[C@H](N)C(=O)O; Dab = NCC[C@H](N)C(=O)O; Dap = NC[C@H](N)C(=O)O Where only a bound is given, the exact number is not on record here.

Tested on in one data set: not given
Experiment: not given
Further details: method as in Tymecka et al. [2018]. The note with it: ref Tymecka et al. [2018]; cited from earlier work.
Regarding `N=C(N)NCCCC[C@H](N)C(=O)NCCCC[C@H](N)C(=O)N[C@@H](CN)C(=O)N1CCC[C@H]1C(=O)N[C@@H](CCCNC(=N)N)C(=O)O` [Compound 1, Lys(Har)-Dap-Pro-Arg] (H-K(hArg)[Dap]PR-OH), the “t½ (stability)” value is reported as greater than 24 h.

With `N=C(N)NCCCC[C@H](N)C(=O)NCCCC[C@H](N)C(=O)N[C@@H](CCN)C(=O)N1CCC[C@H]1C(=O)N[C@@H](CCCNC(=N)N)C(=O)O` [Compound 2, Lys(Har)-Dab-Pro-Arg] (H-K(hArg)[Dab]PR-OH), the “t½ (stability)” value is greater than 24 h.

A further data set has as its system PAE/NRP1 cells.
Experiment: not given
To be noted: 100 μM; 125I-VEGF; ref Jarvis et al. 2010; cited from earlier work. Set-up: method as in Jarvis et al. 2010.
Turning to `NC(N)=NCCC[C@H](NC(=O)c1sccc1NS(=O)(=O)c1cccc2nsnc12)C(=O)O` [Compound D12], the “inhibition at 100 μM” value was 99%.

As for KPA[dR] [Compound D7], the “inhibition at 100 μM” value is 22%.

On to “Lys-Pro-Ala-Arg (KPAR; printed: Lys-Pro-Ala-Arg) [Compound D6]”, for which the “inhibition at 100 μM” value was 83%.

Consider “Lys-Pro-Ala-Lys (KPAK; printed: Lys-Pro-Ala-Lys) [Compound D8]”, for which the “inhibition at 100 μM” value is 22%.

The data set is the same for the next values; noted with them: 125I-VEGF; ref Jarvis et al. 2010; cited from earlier work.
On to `NC(N)=NCCC[C@H](NC(=O)c1sccc1NS(=O)(=O)c1cccc2nsnc12)C(=O)O` [Compound D12], for which the IC50 is 8 µM.

On to “Lys-Pro-Ala-Arg (KPAR; printed: Lys-Pro-Ala-Arg) [Compound D6]”, for which the IC50 was 30 µM.

The target in another data set is T1, VEGF-A165/NRP-1 complex (Homo sapiens, UniProt O14786).
T1 construct: purchased BioLegend (NRP-1); Abcam (biotinylated VEGF-A165)
T1 sequence (O14786 22-641 limits assumed): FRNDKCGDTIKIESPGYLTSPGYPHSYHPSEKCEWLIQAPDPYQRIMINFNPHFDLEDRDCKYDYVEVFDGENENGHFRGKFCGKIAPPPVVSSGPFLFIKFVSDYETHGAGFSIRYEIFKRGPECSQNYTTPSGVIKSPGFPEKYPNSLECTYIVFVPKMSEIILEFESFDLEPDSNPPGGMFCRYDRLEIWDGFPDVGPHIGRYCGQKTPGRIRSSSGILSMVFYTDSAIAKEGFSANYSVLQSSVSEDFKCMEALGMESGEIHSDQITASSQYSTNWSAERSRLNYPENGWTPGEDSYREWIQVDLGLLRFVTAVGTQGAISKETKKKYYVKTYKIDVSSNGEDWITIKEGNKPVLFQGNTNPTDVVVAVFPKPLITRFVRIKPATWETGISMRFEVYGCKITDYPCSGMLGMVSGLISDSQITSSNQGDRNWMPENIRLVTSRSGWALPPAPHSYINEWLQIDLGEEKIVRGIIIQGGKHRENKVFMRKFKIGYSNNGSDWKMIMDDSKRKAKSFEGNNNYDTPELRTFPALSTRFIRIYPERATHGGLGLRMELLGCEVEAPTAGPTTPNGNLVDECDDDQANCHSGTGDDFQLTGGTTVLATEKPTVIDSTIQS
Briefly: competitive ELISA: inhibition of (bt)-VEGF-A165 binding to NRP-1. The note with it: recombinant human NRP-1; mean ± SD of three independent experiments; tested in the concentrations range 100–3.12 μM. How it is done:
Inhibitory activity of the synthesized peptides was measured by a competitive ELISA test, following a protocol similar to the one previously described (Puszko et al. [2019]). […] Nonspecific binding was blocked with 0.5% BSA (BioShop, Canada) in PBS (Bioshop, Canada). Then, 50 μl peptide in PBS in the selected concentrations and 50 μl (400 ng/ml) human […] VEGF-A165 (Abcam, Cambridge, UK) in PBS containing 4 μg/ml heparin (Bioshop, Canada) were added. After 2 h of incubation at RT, the plate was washed and treated with ECL Streptavidin-Horseradish Peroxidase conjugate (GE Healthcare, Little Chalfont, UK) in PBS (1:100) for 45 min. After the final wash the chemiluminescence was quantified immediately after addition of 100 μl chemiluminescent substrate (SuperSignal ELISA Pico Chemiluminescent Substrate; Pierce Biotechnology, Rockford, IL, USA). Wells incubated with (bt)-VEGF-A165 served as a positive control (P), while wells not-coated with NRP-1 were used as a negative control (NS). […] Half-maximal inhibitory concentration (IC50, [μM]) values (mean ± SD of three independent experiments were determined by nonlinear regression analysis (log(inhibitor) vs. normalized response-variable slope) generated in GraphPad Prism 9.0.0 program (Graph Pad, San Diego, CA, USA). In order to verify the accuracy of the design assumptions, a modified competitive enzyme-linked immunosorbent assay (ELISA) was used to evaluate the inhibitory activity of the designed peptidomimetics against VEGF-A165/NRP-1 complex formation. In addition to the parent compounds (1 and 2), heptapeptide […] was used for the sake of comparison.
For the compound `N=C(N)NCCCC[C@H](N)C(=O)NCCCC[C@H](N)C(=O)N[C@@H](CN)C(=O)N1CCC[C@H]1C(=O)N[C@@H](CCCNC(=N)N)C(=O)O` [Compound 1, Lys(Har)-Dap-Pro-Arg] (H-K(hArg)[Dap]PR-OH), the IC50 turned out to be 8.4 ± 1.6 µM.

Regarding `N=C(N)NCCCC[C@H](N)C(=O)NCCCC[C@H](N)C(=O)N[C@@H](CCN)C(=O)N1CCC[C@H]1C(=O)N[C@@H](CCCNC(=N)N)C(=O)O` [Compound 2, Lys(Har)-Dab-Pro-Arg] (H-K(hArg)[Dab]PR-OH), the IC50 is 4.7 ± 0.6 µM.

As for `N=C(N)NCCCC[C@H](NC(=O)[C@@H]1CCCN1C(=O)[C@H](CN)NC(=O)[C@@H](N)CCCCNC(=O)[C@@H](N)CCCCNC(=N)N)C(=O)O` [Compound 3, Lys(Har)-Dap-Pro-Har] (H-K(hArg)[Dap]P[hArg]-OH), the IC50 is 29.2 ± 1.8 µM.

For `N=C(N)NCCCC[C@H](NC(=O)[C@@H]1CCCN1C(=O)[C@H](CCN)NC(=O)[C@@H](N)CCCCNC(=O)[C@@H](N)CCCCNC(=N)N)C(=O)O` [Compound 4, Lys(Har)-Dab-Pro-Har] (H-K(hArg)[Dab]P[hArg]-OH), the IC50 turned out to be 14.3 ± 2.3 µM.

With `N=C(N)NCCCC[C@H](N)C(=O)NCCCC[C@H](N)C(=O)N[C@@H](CN)C(=O)N1CCC[C@H]1C(=O)N[C@@H](CCNC(=N)N)C(=O)O` [Compound 5, Lys(Har)-Dap-Pro-Agb] (H-K(hArg)[Dap]P[Agb]-OH), the IC50 amounted to 87.5 ± 10.3 µM.

As to `N=C(N)NCCCC[C@H](N)C(=O)NCCCC[C@H](N)C(=O)N[C@@H](CCN)C(=O)N1CCC[C@H]1C(=O)N[C@@H](CCNC(=N)N)C(=O)O` [Compound 6, Lys(Har)-Dab-Pro-Agb] (H-K(hArg)[Dab]P[Agb]-OH), the IC50 was determined as 106 ± 17.4 µM.

For the compound `N=C(N)NCCCC[C@H](N)C(=O)NCCCC[C@H](N)C(=O)N[C@@H](CN)C(=O)N1CCC[C@H]1C(=O)N[C@@H](CNC(=N)N)C(=O)O` [Compound 7, Lys(Har)-Dap-Pro-Agp] (H-K(hArg)[Dap]P[Agp]-OH), the concentration for half-maximal inhibition (IC50) stood at 148 ± 45.9 µM.

Regarding `N=C(N)NCCCC[C@H](N)C(=O)NCCCC[C@H](N)C(=O)N[C@@H](CCN)C(=O)N1CCC[C@H]1C(=O)N[C@@H](CNC(=N)N)C(=O)O` [Compound 8, Lys(Har)-Dab-Pro-Agp] (H-K(hArg)[Dab]P[Agp]-OH), the IC50 is 165 ± 21.1 µM.

Take `N=C(N)NCCCC[C@H](N)C(=O)NCCCC[C@H](N)C(=O)N[C@@H](CN)C(=O)N1CCC[C@H]1C(=O)N[C@@H](CCCNC(N)=O)C(=O)O` [Compound 9, Lys(Har)-Dap-Pro-Cit] (H-K(hArg)[Dap]P[Cit]-OH): the IC50 worked out at 170 ± 55.6 µM.

For the compound `N=C(N)NCCCC[C@H](N)C(=O)NCCCC[C@H](N)C(=O)N[C@@H](CCN)C(=O)N1CCC[C@H]1C(=O)N[C@@H](CCCNC(N)=O)C(=O)O` [Compound 10, Lys(Har)-Dab-Pro-Cit] (H-K(hArg)[Dab]P[Cit]-OH), the IC50 was 193 ± 20.6 µM.

As to `N=C(N)NCCCC[C@H](N)C(=O)NCCCC[C@H](N)C(=O)N[C@@H](CN)C(=O)N1CCC[C@H]1C(=O)N[C@@H](Cc1ccc(CN)cc1)C(=O)O` [Compound 11, Lys(Har)-Dap-Pro-Phe(4-CH2-NH2)] (H-K(hArg)[Dap]P[Phe(4-CH2NH2)]-OH), the IC50 turned out to be 22.8 ± 5.9 µM.

Take `N=C(N)NCCCC[C@H](N)C(=O)NCCCC[C@H](N)C(=O)N[C@@H](CCN)C(=O)N1CCC[C@H]1C(=O)N[C@@H](Cc1ccc(CN)cc1)C(=O)O` [Compound 12, Lys(Har)-Dab-Pro-Phe(4-CH2-NH2)] (H-K(hArg)[Dab]P[Phe(4-CH2NH2)]-OH): the IC50 is 19.8 ± 1.8 µM.

Take “ATWLPPR [Compound A7R, Ala-Thr-Trp-Leu-Pro-Pro-Arg]”: the IC50 stood at 11.3 ± 3.2 µM.

Another data set has as its system recombinant rat NRP-1/Fc chimera.
Experiment: not given
To be noted: 125I-VEGF, ref Starzec et al. 2007; cited from earlier work. Set-up: method as in Starzec et al. 2007.
With “Ala-Thr-Trp-Leu-Pro-Pro6 (ATWLPP; printed: Ala-Thr-Trp-Leu-Pro-Pro) [Compound D2]”, the “inhibition at 100 μM” value was 18%.

For “Ala-Thr-Trp-Leu-Pro-Pro-Ala7 (ATWLPPA; printed: Ala-Thr-Trp-Leu-Pro-Pro-Ala) [Compound D3]”, the “inhibition at 100 μM” value is 17%.

Regarding “Ala-Thr-Trp-Leu-Pro-Pro-Lys7 (ATWLPPK; printed: Ala-Thr-Trp-Leu-Pro-Pro-Lys) [Compound D4]”, the “inhibition at 100 μM” value is 20%.

For “Ala-Thr-Trp-Leu-Pro-Pro-Lys7-Ala8 (ATWLPPK; C-terminal Ala8; printed: Ala-Thr-Trp-Leu-Pro-Pro-Lys) [Compound D5]”, the “inhibition at 100 μM” value is 18%.

The target of the next data set is NRP1-b1.
Experiment: not given
Set-up: method as in Mota et al. 2018. The note with it: SPR; ref Mota et al. 2018; cited from earlier work.
Turning to `CC(C)(C)OC(=O)N[C@@H](CCCN=C(N)N)C(=O)O` [Compound D9, Nα-Boc-Arg-OH], the Kd is 3 µM.

With `NC(N)=NCCC[C@H](NC(=O)OCc1ccccc1)C(=O)O` [Compound D10, Nα-Cbz-Arg-OH], the Kd is 17 µM.

In the case of `NC(N)=NCCC[C@H](NC(=O)c1ccccc1)C(=O)O` [Compound D11, Nα-benzoyl-Arg-OH], the Kd is 24 µM.

The values above are taken from article PMC11344719, “Peptidomimetic inhibitors of the VEGF-A165/NRP-1 complex obtained by modification of the C-terminal arginine” (Amino Acids, 2024).
